Data reported in article PMC3773999 (Bioorganic & medicinal chemistry, 2013).

Assays:
melanocortin receptors = conditions: ref [28]; cited from earlier work
hMC4R = hMC4R (Homo sapiens, UniProt P32245); conditions: saturation binding, Figure 2
hMC4R, sequence (P32245 whole entry): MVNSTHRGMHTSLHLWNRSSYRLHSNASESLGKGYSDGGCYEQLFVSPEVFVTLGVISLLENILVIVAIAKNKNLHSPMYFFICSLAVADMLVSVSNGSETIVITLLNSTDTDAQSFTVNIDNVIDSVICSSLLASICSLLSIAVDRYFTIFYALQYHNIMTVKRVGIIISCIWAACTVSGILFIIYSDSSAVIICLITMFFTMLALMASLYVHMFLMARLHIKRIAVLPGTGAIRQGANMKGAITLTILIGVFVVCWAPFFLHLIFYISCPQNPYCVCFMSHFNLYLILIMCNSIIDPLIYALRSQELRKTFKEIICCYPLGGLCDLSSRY

| Compound | off-rate (melanocortin receptors) | non-specific binding relative to probes 3 and 4 (hMC4R) |
| --- | --- | --- |
| Ac-Ser-Tyr-Ser-Nle-Glu-His-DPhe-Arg-Trp-Gly-Lys-Pro-Val-NH2 [NDP-α-MSH] | approximately eight | – |
| N=C(N)NCCC[C@H](NC(=O)[C@@H](Cc1ccccc1)NC(=O)[C@H](Cc1c[nH]cn1)NC(=O)COCC(=O)NCCCOCCOCCOCCCNC(=O)CN(CCN(CCN(CC(=O)O)CC(=O)O)CC(=O)O)CC(=O)O)C(=O)N[C@@H](Cc1c[nH]c2ccccc12)C(N)=O [Probe 2, Eu-DTPA-PEGO-MSH(4)] | – | 20% |
